The results in this text go back to PubChem BioAssay AID1745844 (Carcinogenic Potency Database (CPDB), 2022).

In the series the test system is rodent lifetime carcinogenesis bioassay, tumor incidence TD50. Put plainly: carcinogenic potency in animals, long-term in vivo studies, CPDB compilation (AID 1745844).

The source made the active and inactive calls. How the calls were made is not given here.

Take `CC(=O)NNc1ccccc1`: the TD50 (mouse, strain Swiss albino, females, in drinking water, site: blood vessels, lesion: angioma, dosed 111 weeks, study length 111 weeks) was 117 mg/kg/day; the TD50 (mouse, strain Swiss albino, females, in drinking water, site: blood vessels, lesion: angiosarcoma, dosed 111 weeks, study length 111 weeks) came out at 117 mg/kg/day; the TD50 (mouse, strain Swiss albino, females, in drinking water, site: blood vessels, lesion: several types, types named in the paper, dosed 111 weeks, study length 111 weeks) is 49 mg/kg/day; the TD50 (mouse, strain Swiss albino, females, in drinking water, site: liver, lesion: angioma, dosed 111 weeks, study length 111 weeks) is 105 mg/kg/day; the TD50 (mouse, strain Swiss albino, females, in drinking water, site: liver, lesion: angiosarcoma, dosed 111 weeks, study length 111 weeks) amounted to 105 mg/kg/day; the TD50 (mouse, strain Swiss albino, females, in drinking water, site: liver, lesion: several types, types named in the paper, dosed 111 weeks, study length 111 weeks) was 44.8 mg/kg/day. Moreover, the TD50 was 413 mg/kg/day (inactive) (mouse, strain Swiss albino, females, in drinking water, site: lung, lesion: adenoma, dosed 111 weeks, study length 111 weeks); 113 mg/kg/day (mouse, strain Swiss albino, males, in drinking water, site: blood vessels, lesion: angioma, dosed 106 weeks, study length 106 weeks); 161 mg/kg/day (mouse, strain Swiss albino, males, in drinking water, site: blood vessels, lesion: angiosarcoma, dosed 106 weeks, study length 106 weeks); 59.8 mg/kg/day (mouse, strain Swiss albino, males, in drinking water, site: blood vessels, lesion: several types, types named in the paper, dosed 106 weeks, study length 106 weeks); 128 mg/kg/day (mouse, strain Swiss albino, males, in drinking water, site: liver, lesion: angioma, dosed 106 weeks, study length 106 weeks); 146 mg/kg/day (mouse, strain Swiss albino, males, in drinking water, site: liver, lesion: angiosarcoma, dosed 106 weeks, study length 106 weeks). Under “mouse, strain Swiss albino, males, in drinking water, site: liver, lesion: several types, types named in the paper, dosed 106 weeks, study length 106 weeks”, the TD50 is 62.1 mg/kg/day. Moreover, the carcinogen call by setting is: (mouse, strain Swiss albino, males, in drinking water, site: lung, lesion: adenocarcinoma, dosed 106 weeks, study length 106 weeks) “negative (inactive)”; (mouse, strain Swiss albino, males, in drinking water, site: lung, lesion: adenoma, dosed 106 weeks, study length 106 weeks) “negative (inactive)”.

For the compound `O[C@H]([C@H](O)[C@@H](O)CBr)[C@H](O)CBr`, the TD50 (mouse, strain Swiss, females, i.p., site: all sites, lesion: leukemia, dosed 26 weeks, study length 78 weeks) amounted to 46.3 mg/kg/day; the TD50 (mouse, strain Swiss, females, i.p., site: all sites, lesion: lymphosarcoma, dosed 26 weeks, study length 78 weeks) was 12.2 mg/kg/day; the TD50 (mouse, strain Swiss, females, i.p., site: any site (literature study), lesion: benign tumor, dosed 26 weeks, study length 78 weeks) was determined as 24.5 mg/kg/day; the TD50 (mouse, strain Swiss, females, i.p., site: any site (literature study), lesion: malignant tumor, dosed 26 weeks, study length 78 weeks) was 4.75 mg/kg/day; the TD50 (mouse, strain Swiss, females, i.p., site: any site (literature study), lesion: several types, types named in the paper, dosed 26 weeks, study length 78 weeks) came out at 2.45 mg/kg/day; the TD50 (mouse, strain Swiss, females, i.p., site: lung, lesion: several types, types named in the paper, dosed 26 weeks, study length 78 weeks) is 9.23 mg/kg/day. The TD50 runs as follows: (mouse, strain Swiss, males, i.p., site: all sites, lesion: lymphatic leukemia, dosed 26 weeks, study length 78 weeks) 32.4 mg/kg/day; (mouse, strain Swiss, males, i.p., site: all sites, lesion: lymphosarcoma, dosed 26 weeks, study length 78 weeks) 17.6 mg/kg/day; (mouse, strain Swiss, males, i.p., site: any site (literature study), lesion: malignant tumor, dosed 26 weeks, study length 78 weeks) 15.2 mg/kg/day; (mouse, strain Swiss, males, i.p., site: any site (literature study), lesion: several types, types named in the paper, dosed 26 weeks, study length 78 weeks) 12.7 mg/kg/day; (mouse, strain Swiss, males, i.p., site: lung, lesion: several types, types named in the paper, dosed 26 weeks, study length 78 weeks) 13.5 mg/kg/day; (rat, strain Charles River CD (Sprague-Dawley), males, i.p., site: all sites, lesion: lymphosarcoma, dosed 26 weeks, study length 78 weeks) 182 mg/kg/day. In addition, the TD50 reads like this: (rat, strain Charles River CD (Sprague-Dawley), males, i.p., site: any site (literature study), lesion: malignant tumor, dosed 26 weeks, study length 78 weeks) 5.05 mg/kg/day; (rat, strain Charles River CD (Sprague-Dawley), males, i.p., site: any site (literature study), lesion: several types, types named in the paper, dosed 26 weeks, study length 78 weeks) 3.13 mg/kg/day; (rat, strain Charles River CD (Sprague-Dawley), males, i.p., site: mammary gland, lesion: squamous-cell carcinoma, dosed 26 weeks, study length 78 weeks) 182 mg/kg/day; (rat, strain Charles River CD (Sprague-Dawley), males, i.p., site: peritoneum, lesion: sarcoma, dosed 26 weeks, study length 78 weeks) 59.2 mg/kg/day; (rat, strain Charles River CD (Sprague-Dawley), males, i.p., site: skin, lesion: several types, types named in the paper, dosed 26 weeks, study length 78 weeks) 8.37 mg/kg/day.

In the case of `CC(COc1ccc(C(C)(C)C)cc1)OS(=O)OCCCl` (stereo unspecified), the TD50 (mouse, strain B6AKF1, females, oral dosing, site: any site (literature study), lesion: several types, types named in the paper, dosed 80 weeks, study length 80 weeks) worked out at 391 mg/kg/day; the TD50 (mouse, strain B6AKF1, females, oral dosing, site: lung, lesion: adenoma, dosed 80 weeks, study length 80 weeks) came out at 432 mg/kg/day; the TD50 (mouse, strain B6AKF1, males, oral dosing, site: liver, lesion: hepatoma, dosed 77 weeks, study length 77 weeks) was 15900 mg/kg/day; the TD50 (mouse, strain B6C3F1, females, oral dosing, site: any site (literature study), lesion: several types, types named in the paper, dosed 77 weeks, study length 77 weeks) worked out at 92.7 mg/kg/day; the TD50 (mouse, strain B6C3F1, females, oral dosing, site: liver, lesion: hepatoma, dosed 77 weeks, study length 77 weeks) came out at 973 mg/kg/day; the TD50 (mouse, strain B6C3F1, females, oral dosing, site: lung, lesion: adenoma, dosed 77 weeks, study length 77 weeks) was 973 mg/kg/day. Also, the TD50 runs as follows: (mouse, strain B6C3F1, males, oral dosing, site: any site (literature study), lesion: several types, types named in the paper, dosed 80 weeks, study length 80 weeks) 103 mg/kg/day; (mouse, strain B6C3F1, males, oral dosing, site: liver, lesion: hepatoma, dosed 80 weeks, study length 80 weeks) 158 mg/kg/day; (mouse, strain B6C3F1, males, oral dosing, site: liver, lesion: several types, types named in the paper, dosed 80 weeks, study length 80 weeks) 126 mg/kg/day; (rat, strain CFN, both sexes, in feed, site: bile duct, lesion: adenoma, dosed 104 weeks, study length 104 weeks) 1010 mg/kg/day; (rat, strain CFN, both sexes, in feed, site: liver, lesion: hyperplastic nodule, dosed 104 weeks, study length 104 weeks) 61.8 mg/kg/day; (rat, strain Food and Drug Research Laboratories stock rats, both sexes, in feed, site: liver, lesion: several types, types named in the paper, dosed 93 weeks, study length 104 weeks) 430 mg/kg/day. For the same compound, the TD50 is, setting by setting: (rat, strain Osborne-Mendel, females, in feed, site: any site (literature study), lesion: benign tumor, dosed 104 weeks, study length 104 weeks) 31.5 mg/kg/day (inactive); (rat, strain Osborne-Mendel, females, in feed, site: liver, lesion: hemangioma, dosed 117 weeks, study length 117 weeks) 256 mg/kg/day (inactive); (rat, strain Osborne-Mendel, males, in feed, site: any site (literature study), lesion: benign tumor, dosed 104 weeks, study length 104 weeks) 64.7 mg/kg/day (inactive); (rat, strain Osborne-Mendel, males, in feed, site: any site (literature study), lesion: malignant tumor, dosed 117 weeks, study length 117 weeks) 101 mg/kg/day (inactive); (rat, strain Osborne-Mendel, males, in feed, site: any site (literature study), lesion: several types, types named in the paper, dosed 117 weeks, study length 117 weeks) 198 mg/kg/day (inactive); (rat, strain Sprague-Dawley, both sexes, in feed, site: liver, lesion: hyperplastic nodule, dosed 104 weeks, study length 104 weeks) 760 mg/kg/day. For the same compound, the TD50 (rat, strain Wistar/FDRL, both sexes, in feed, site: bile duct, lesion: adenoma, dosed 104 weeks, study length 104 weeks) is 397 mg/kg/day; the TD50 (rat, strain Wistar/FDRL, both sexes, in feed, site: liver, lesion: hepatocellular carcinoma, dosed 104 weeks, study length 104 weeks) was 1000 mg/kg/day; the TD50 (rat, strain Wistar/FDRL, both sexes, in feed, site: liver, lesion: hyperplastic nodule, dosed 104 weeks, study length 104 weeks) is 79.9 mg/kg/day. Further, the carcinogen call is, setting by setting: (rat, strain Osborne-Mendel, females, in feed, site: any site (literature study), lesion: malignant tumor, dosed 104 weeks, study length 104 weeks) “negative (inactive)”; (rat, strain Osborne-Mendel, females, in feed, site: any site (literature study), lesion: several types, types named in the paper, dosed 117 weeks, study length 117 weeks) “negative (inactive)”; (rat, strain Osborne-Mendel, females, in feed, site: liver, lesion: one or several types, types not named, dosed 104 weeks, study length 104 weeks) “negative (inactive)”; (rat, strain Osborne-Mendel, males, in feed, site: any site (literature study), lesion: malignant tumor, dosed 104 weeks, study length 104 weeks) “negative (inactive)”; (rat, strain Osborne-Mendel, males, in feed, site: liver, lesion: one or several types, types not named, dosed 104 weeks, study length 104 weeks) “negative (inactive)”; (rat, strain Osborne-Mendel, males, in feed, site: liver, lesion: one or several types, types not named, dosed 117 weeks, study length 117 weeks) “negative (inactive)”.

As to `CCCCCN(N=O)C(=O)OCC`, the TD50 reads like this: (rat, strain Donryu, females, in drinking water, site: any site (literature study), lesion: several types, types named in the paper, dosed 52 weeks, study length 60 weeks) 0.336 mg/kg/day; (rat, strain Donryu, females, in drinking water, site: esophagus, lesion: papilloma, dosed 52 weeks, study length 60 weeks) 1.46 mg/kg/day; (rat, strain Donryu, females, in drinking water, site: esophagus, lesion: squamous-cell carcinoma, dosed 52 weeks, study length 60 weeks) 1.01 mg/kg/day; (rat, strain Donryu, females, in drinking water, site: forestomach, lesion: papilloma, dosed 52 weeks, study length 60 weeks) 1.54 mg/kg/day; (rat, strain Donryu, females, in drinking water, site: forestomach, lesion: squamous-cell carcinoma, dosed 52 weeks, study length 60 weeks) 2.81 mg/kg/day; (rat, strain Donryu, females, in drinking water, site: several sites, sites named in the paper, lesion: papilloma, dosed 52 weeks, study length 60 weeks) 1.7 mg/kg/day. Moreover, the TD50 (rat, strain Donryu, females, in drinking water, site: several sites, sites named in the paper, lesion: squamous-cell carcinoma, dosed 52 weeks, study length 60 weeks) is 1.09 mg/kg/day.

As to `CCNC(=O)Nc1ncc([N+](=O)[O-])s1`, the TD50 runs as follows: (mouse, strain B6C3F1, females, in feed, site: any site (literature study), lesion: several types, types named in the paper, dosed 94 weeks, study length 104 weeks) 1400 mg/kg/day (inactive); (mouse, strain B6C3F1, females, in feed, site: liver, lesion: hepatocellular adenoma + hepatocellular carcinoma + neoplastic nodule, dosed 94 weeks, study length 104 weeks) 2720 mg/kg/day; (mouse, strain B6C3F1, males, in feed, site: any site (literature study), lesion: several types, types named in the paper, dosed 94 weeks, study length 104 weeks) 4750 mg/kg/day; (mouse, strain B6C3F1, males, in feed, site: liver, lesion: hepatocellular adenoma + hepatocellular carcinoma + neoplastic nodule, dosed 94 weeks, study length 104 weeks) 758 mg/kg/day; (mouse, strain B6C3F1, males, in feed, site: liver, lesion: hepatocellular adenoma + hepatocellular carcinoma, dosed 94 weeks, study length 104 weeks) 758 mg/kg/day; (mouse, strain B6C3F1, males, in feed, site: liver, lesion: hepatocellular carcinoma, dosed 94 weeks, study length 104 weeks) 1900 mg/kg/day. Besides, the TD50 (rat, strain Fischer 344, females, in feed, site: any site (literature study), lesion: several types, types named in the paper, dosed 94 weeks, study length 104 weeks) was 175 mg/kg/day; the TD50 (rat, strain Fischer 344, females, in feed, site: mammary gland + skin + subcutaneous tissue, lesion: cystadenoma, NOS + fibroadenoma, dosed 94 weeks, study length 104 weeks) is 131 mg/kg/day; the TD50 (rat, strain Fischer 344, males, in feed, site: liver, lesion: hepatocellular adenoma + hepatocellular carcinoma + neoplastic nodule, dosed 94 weeks, study length 104 weeks) came out at 508 mg/kg/day. The carcinogen call (rat, strain Fischer 344, males, in feed, site: any site (literature study), lesion: several types, types named in the paper, dosed 94 weeks, study length 104 weeks) is “negative (inactive)”.
